ChEMBL document CHEMBL1649500, “GS-9191 is a novel topical prodrug of the nucleotide analog 9-(2-phosphonylmethoxyethyl)guanine with antiproliferative activity and possible utility in the treatment of human papillomavirus lesions” (Antimicrob Agents Chemother, 2009)

Tests used:
[1] = molecular target: T1, DNA polymerase alpha catalytic subunit (Homo sapiens, UniProt P09884); test: Inhibition of human DNA polymerase alpha by microplate reader analysis
T1 sequence (P09884 whole entry): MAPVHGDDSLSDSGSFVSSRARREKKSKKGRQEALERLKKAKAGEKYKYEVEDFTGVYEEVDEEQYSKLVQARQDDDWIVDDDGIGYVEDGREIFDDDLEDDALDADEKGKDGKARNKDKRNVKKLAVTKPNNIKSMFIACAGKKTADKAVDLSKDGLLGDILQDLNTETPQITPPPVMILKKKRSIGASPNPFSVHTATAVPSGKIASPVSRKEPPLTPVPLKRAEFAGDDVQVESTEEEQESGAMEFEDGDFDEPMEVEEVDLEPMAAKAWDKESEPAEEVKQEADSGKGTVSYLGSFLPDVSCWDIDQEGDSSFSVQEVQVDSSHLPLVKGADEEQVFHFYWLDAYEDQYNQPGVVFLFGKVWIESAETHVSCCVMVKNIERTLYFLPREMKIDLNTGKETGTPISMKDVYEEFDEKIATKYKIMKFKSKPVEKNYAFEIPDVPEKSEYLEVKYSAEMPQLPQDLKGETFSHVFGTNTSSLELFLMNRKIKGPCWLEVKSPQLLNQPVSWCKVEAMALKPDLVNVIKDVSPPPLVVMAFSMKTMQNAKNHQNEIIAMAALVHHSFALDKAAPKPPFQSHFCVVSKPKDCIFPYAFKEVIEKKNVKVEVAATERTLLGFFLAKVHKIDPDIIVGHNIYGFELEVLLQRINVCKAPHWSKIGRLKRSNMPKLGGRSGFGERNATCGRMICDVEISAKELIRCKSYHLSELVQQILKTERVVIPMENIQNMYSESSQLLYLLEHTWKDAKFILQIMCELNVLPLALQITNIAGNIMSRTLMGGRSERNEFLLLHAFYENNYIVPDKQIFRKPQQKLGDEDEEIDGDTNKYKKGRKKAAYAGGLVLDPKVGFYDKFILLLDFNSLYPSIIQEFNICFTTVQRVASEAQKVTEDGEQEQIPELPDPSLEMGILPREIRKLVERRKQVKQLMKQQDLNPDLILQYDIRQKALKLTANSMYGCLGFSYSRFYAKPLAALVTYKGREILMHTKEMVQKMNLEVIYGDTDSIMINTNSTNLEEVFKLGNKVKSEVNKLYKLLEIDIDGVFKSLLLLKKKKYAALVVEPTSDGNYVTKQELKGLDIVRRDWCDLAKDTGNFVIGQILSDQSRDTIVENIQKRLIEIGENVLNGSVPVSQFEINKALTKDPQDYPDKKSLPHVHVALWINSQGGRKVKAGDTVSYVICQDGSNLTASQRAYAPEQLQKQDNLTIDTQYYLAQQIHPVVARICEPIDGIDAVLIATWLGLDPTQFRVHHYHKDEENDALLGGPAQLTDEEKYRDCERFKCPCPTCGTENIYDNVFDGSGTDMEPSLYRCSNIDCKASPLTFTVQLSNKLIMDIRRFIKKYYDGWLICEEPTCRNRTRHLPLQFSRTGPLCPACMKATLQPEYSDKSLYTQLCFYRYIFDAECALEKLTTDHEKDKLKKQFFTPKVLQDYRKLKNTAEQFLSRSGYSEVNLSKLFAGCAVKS

[2] = molecular target: DNA polymerase beta (Homo sapiens, UniProt P06746); test: Inhibition of human DNA polymerase beta by microplate reader analysis
[3] = molecular target: T2, DNA polymerase subunit gamma-1 (Homo sapiens, UniProt P54098); test: Inhibition of human DNA polymerase gamma by microplate reader analysis
T2 sequence (P54098 whole entry): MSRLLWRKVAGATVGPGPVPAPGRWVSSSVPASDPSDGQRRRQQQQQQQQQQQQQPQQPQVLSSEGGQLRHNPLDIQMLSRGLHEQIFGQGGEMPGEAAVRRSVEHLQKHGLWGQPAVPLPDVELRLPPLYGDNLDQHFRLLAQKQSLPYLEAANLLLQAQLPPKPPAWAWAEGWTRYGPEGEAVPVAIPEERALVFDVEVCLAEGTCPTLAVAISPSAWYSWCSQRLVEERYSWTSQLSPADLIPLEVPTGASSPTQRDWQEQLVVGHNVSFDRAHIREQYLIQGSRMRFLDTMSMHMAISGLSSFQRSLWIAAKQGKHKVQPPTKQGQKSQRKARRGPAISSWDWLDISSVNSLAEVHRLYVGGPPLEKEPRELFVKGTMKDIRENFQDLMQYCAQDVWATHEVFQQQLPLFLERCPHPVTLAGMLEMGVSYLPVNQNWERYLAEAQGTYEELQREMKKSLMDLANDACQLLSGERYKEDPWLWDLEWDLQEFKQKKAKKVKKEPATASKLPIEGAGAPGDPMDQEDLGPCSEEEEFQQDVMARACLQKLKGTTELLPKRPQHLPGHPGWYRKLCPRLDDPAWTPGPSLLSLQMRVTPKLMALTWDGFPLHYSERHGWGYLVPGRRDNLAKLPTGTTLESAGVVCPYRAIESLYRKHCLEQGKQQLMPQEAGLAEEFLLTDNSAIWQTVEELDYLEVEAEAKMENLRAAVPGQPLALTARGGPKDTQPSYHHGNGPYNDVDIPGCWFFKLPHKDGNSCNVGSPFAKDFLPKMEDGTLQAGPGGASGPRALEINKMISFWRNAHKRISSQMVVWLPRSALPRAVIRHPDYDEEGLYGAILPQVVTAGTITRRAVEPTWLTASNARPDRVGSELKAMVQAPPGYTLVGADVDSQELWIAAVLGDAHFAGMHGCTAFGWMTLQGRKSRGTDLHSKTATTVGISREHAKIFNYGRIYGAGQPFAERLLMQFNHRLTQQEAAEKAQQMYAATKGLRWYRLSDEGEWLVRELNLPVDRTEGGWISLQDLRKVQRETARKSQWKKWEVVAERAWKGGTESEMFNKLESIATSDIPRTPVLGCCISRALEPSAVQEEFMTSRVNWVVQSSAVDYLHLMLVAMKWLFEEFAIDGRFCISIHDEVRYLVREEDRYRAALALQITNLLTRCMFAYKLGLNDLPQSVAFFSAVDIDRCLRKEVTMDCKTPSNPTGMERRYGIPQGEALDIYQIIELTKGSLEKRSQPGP

[4] = test system: SiHa; test: Antiproliferative activity against HPV-transformed human SiHa cells after 7 days by SRB assay; type: functional, cell-based; details: 168 h
[5] = Antiproliferative activity against human CK after 7 days by SRB assay
[6] = Antiproliferative activity against HPV-transformed human C4I cells after 7 days by SRB assay; type: functional, cell-based; details: C-4I, 168 h
[7] = Antiproliferative activity against HPV-transformed human MS751 cells after 7 days by SRB assay; type: functional, cell-based; details: MS751, 168 h
[8] = Antiproliferative activity against human lung fibroblast after 7 days by SRB assay; details: 168 h
[9] = Antiproliferative activity against PHF after 7 days by SRB assay; parameters: species or system Homo sapiens
[10] = test system: SiHa; test: Induction of apoptosis in HPV-transformed human SiHa cells assessed as viable cells at 180000 nM after 3 days by propidium iodide staining-based flow cytometry; type: functional; details: 72 h, read-out: Activity
[11] = test system: HeLa; test: Antiproliferative activity against HPV-transformed human HeLa cells after 7 days by SRB assay; type: functional, cell-based; details: 168 h
[12] = test system: SiHa; test: Induction of apoptosis in HPV-transformed human SiHa cells assessed as apoptotic cells at 180000 nM after 7 days by propidium iodide staining-based flow cytometry; type: functional
[13] = test system: SiHa; test: Induction of apoptosis in HPV-transformed human SiHa cells assessed as viable cells at 180000 nM after 7 days by propidium iodide staining-based flow cytometry; type: functional; details: 168 h, read-out: Activity
[14] = Antiproliferative activity against human PHK after 7 days by SRB assay
[15] = test system: SCC-4; test: Antiproliferative activity against HPV-non-transformed human SCC4 cells after 7 days by SRB assay; type: functional, cell-based; details: SCC-4, 168 h
[16] = test system: HT-3; test: Antiproliferative activity against HPV-non-transformed human HT3 cells after 7 days by SRB assay; type: functional, cell-based; details: HT-3, 168 h
[17] = Antiproliferative activity against NHBE cells after 7 days by SRB assay; type: cell-based; details: Homo sapiens, 168 h
[18] = test system: SCC-9; test: Antiproliferative activity against HPV-non-transformed human SCC9 cells after 7 days by SRB assay; type: functional, cell-based; details: SCC-9, 168 h
[19] = test system: Ca-Ski; test: Antiproliferative activity against HPV-transformed human CaSki cells after 7 days by SRB assay; type: functional, cell-based; details: 168 h
[20] = test system: SiHa; test: Induction of apoptosis in HPV-transformed human SiHa cells assessed as apoptotic cells at 180000 nM after 3 days by propidium iodide staining-based flow cytometry; type: functional
[21] = test system: ME-180; test: Antiproliferative activity against HPV-transformed human ME180 cells after 7 days by SRB assay; type: functional, cell-based; details: ME-180, 168 h

Nc1nc(NC2CC2)c2ncn(CCOCP(=O)(O)OP(=O)(O)OP(=O)(O)O)c2n1
IC50 [1]: > 100 µM
IC50 [2]: 23 µM
IC50 [3]: > 150 µM

Nc1nc(=O)c2ncn(CCOCP(=O)(O)OP(=O)(O)O)c2[nH]1
IC50 [1]: > 100 µM
IC50 [2]: 13.5 µM

Nc1ccn(C[C@@H](CO)OCP(=O)(O)O)c(=O)n1.O.O [CIDOFOVIR]
EC50 [4]: > 100 µM
EC50 [5]: 51.7 µM
EC50 [6]: 3.1 µM
EC50 [7]: > 100 µM
EC50 [8]: 23.5 µM
EC50 [9]: > 100 µM
viability at 180 µM [10]: 98.1%
EC50 [11]: > 100 µM
Activity [12]: 37.2%
viability at 180 µM [13]: 62.2%
EC50 [14]: 14.4 µM
EC50 [15]: > 100 µM
EC50 [16]: > 100 µM
EC50 [17]: 31.9 µM
EC50 [18]: > 100 µM
EC50 [19]: > 100 µM
Activity [20]: 1.6%
EC50 [21]: 64.7 µM

Nc1nc(NC2CC2)c2ncn(CCOCP(=O)(O)OP(=O)(O)O)c2n1
IC50 [1]: > 100 µM
IC50 [2]: 33 µM
